# ChEMBL document CHEMBL4765344, “Expanding the anticancer potential of 1,2,3-triazoles via simultaneously targeting Cyclooxygenase-2, 15-lipoxygenase and tumor-associated carbonic anhydrases” (Eur J Med Chem, 2020)
# pIC50, pKi: −log10 of the molar value.
# Legend:
# [1] = target: T1, Prostaglandin G/H synthase 1 (Ovis aries, UniProt P05979); experiment: Inhibition of ovine COX1 by colorimetric analysis
# T1 sequence (P05979 whole entry): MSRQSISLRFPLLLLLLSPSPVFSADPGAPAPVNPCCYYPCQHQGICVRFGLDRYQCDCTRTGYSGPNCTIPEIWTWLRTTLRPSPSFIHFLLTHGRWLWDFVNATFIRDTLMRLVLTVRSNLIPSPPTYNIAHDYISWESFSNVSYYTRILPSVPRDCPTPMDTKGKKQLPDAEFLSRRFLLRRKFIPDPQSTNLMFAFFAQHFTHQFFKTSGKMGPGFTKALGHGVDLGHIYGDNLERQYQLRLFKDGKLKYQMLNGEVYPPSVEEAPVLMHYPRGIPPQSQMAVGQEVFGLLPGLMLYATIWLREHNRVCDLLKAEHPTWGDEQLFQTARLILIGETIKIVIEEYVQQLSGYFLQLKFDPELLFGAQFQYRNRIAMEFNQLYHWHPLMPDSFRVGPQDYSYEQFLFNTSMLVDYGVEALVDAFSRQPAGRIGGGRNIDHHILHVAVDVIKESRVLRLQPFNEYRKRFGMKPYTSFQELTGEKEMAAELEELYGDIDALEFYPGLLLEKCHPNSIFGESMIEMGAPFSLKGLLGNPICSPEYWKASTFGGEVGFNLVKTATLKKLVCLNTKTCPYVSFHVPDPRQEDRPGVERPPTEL
# [2] = Inhibition of soya bean 15-LOX; parameters: species or system Glycine max
# [3] = target: Carbonic anhydrase 1 (Homo sapiens, UniProt P00915); experiment: Inhibition of human CA1 by stopped-flow carbon dioxide hydration assay
# [4] = target: Carbonic anhydrase 2 (Homo sapiens, UniProt P00918); experiment: Inhibition of human CA2 by stopped-flow carbon dioxide hydration assay
# [5] = target: Carbonic anhydrase 9 (Homo sapiens, UniProt Q16790); experiment: Inhibition of human CA9 by stopped-flow carbon dioxide hydration assay
# [6] = target: Carbonic anhydrase 12 (Homo sapiens, UniProt O43570); experiment: Inhibition of human CA12 by stopped-flow carbon dioxide hydration assay
# [7] = system: WI-38; experiment: Cytotoxicity against human WI-38 cells assessed as reduction in cell viability after 72 hrs by SRB assay; format: cell-based; conditions: WI-38, 72 h
# [8] = system: A549; experiment: Antiproliferative activity against human A549 cells assessed as inhibition of cell growth at 100 microM measured after 72 hrs by SRB assay; format: functional
# [9] = system: HepG2; experiment: Antiproliferative activity against human HepG2 cells assessed as inhibition of cell growth at 100 microM measured after 72 hrs by SRB assay; format: functional
# [10] = system: MCF7; experiment: Antiproliferative activity against human MCF-7 cells assessed as inhibition of cell growth at 100 microM measured after 72 hrs by SRB assay; format: functional
# [11] = system: A549; experiment: Antiproliferative activity against human A549 cells assessed as cell growth inhibition measured after 72 hrs by SRB assay; format: functional, cell-based; conditions: A549, 72 h
# [12] = system: HepG2; experiment: Antiproliferative activity against human HepG2 cells assessed as cell growth inhibition measured after 72 hrs by SRB assay; format: functional, cell-based; conditions: HepG2, 72 h
# [13] = system: MCF7; experiment: Antiproliferative activity against human MCF-7 cells assessed as cell growth inhibition measured after 72 hrs by SRB assay; format: functional, cell-based; conditions: MCF7, 72 h
# [14] = system: MCF7; experiment: Induction of apoptosis in human MCF-7 cells assessed as early apoptotic cells at IC50 measured after 24 hrs by Annexin V-FITC/propidium iodide staining based flow cytometry (reference value: 0.4%); format: functional
# [15] = system: MCF7; experiment: Induction of apoptosis in human MCF-7 cells assessed as late apoptotic cells at IC50 measured after 24 hrs by Annexin V-FITC/propidium iodide staining based flow cytometry (reference value: […]); format: functional
# [16] = system: MCF7; experiment: Induction of apoptosis in human MCF-7 cells assessed as necrotic cells at IC50 measured after 24 hrs by Annexin V-FITC/propidium iodide staining based flow cytometry (reference value: 1.27%); format: functional
# [17] = system: MCF7; experiment: Induction of apoptosis in human MCF7 cells assessed as caspase-9 expression at IC50 by ELISA (reference value: 1.77 +/- 0.1 ng/ml); format: functional
# [18] = system: MCF7; experiment: Induction of apoptosis in human MCF7 cells assessed as fold change in caspase-9 expression at IC50 by ELISA relative to control; format: functional
# [19] = system: MCF7; experiment: Induction of apoptosis in human MCF7 cells assessed as Bax expression at IC50 by ELISA (reference value: 45.46 +/- 3.6 pg/ml); format: functional
# [20] = system: MCF7; experiment: Induction of apoptosis in human MCF7 cells assessed as fold change in Bax expression at IC50 by ELISA relative to control; format: functional
# [21] = system: MCF7; experiment: Induction of apoptosis in human MCF7 cells assessed as Bcl-2 expression at IC50 by ELISA (reference value: 7.49 +/- 0.1 ng/ml); format: functional
# [22] = system: MCF7; experiment: Induction of apoptosis in human MCF7 cells assessed as fold change in Bcl-2 expression at IC50 by ELISA relative to control; format: functional
# [23] = system: HT-29; experiment: Cytotoxicity against human HT-29 cells assessed as reduction in cell viability incubated for 24 hrs by MTS assay; format: functional, cell-based; conditions: HT-29, 24 h
# [24] = system: THP-1; experiment: Cytotoxicity against PMA/LPS-challenged human THP1 cells assessed as reduction in cell viability incubated for 24 hrs by MTS assay; format: functional, cell-based; conditions: THP-1, 24 h
# [25] = system: MCF7; experiment: Induction of cell cycle arrest in human MCF7 cells assessed as accumulation at pre-G1 phase at IC50 measured after 24 hrs by propidium iodide/RNase staining based flow cytometry (reference value: 1.96%); format: functional
# [26] = system: MCF7; experiment: Induction of cell cycle arrest in human MCF7 cells assessed as accumulation at G0/G1 phase at IC50 measured after 24 hrs by propidium iodide/RNase staining based flow cytometry (reference value: 51.72%); format: functional
# [27] = system: MCF7; experiment: Induction of cell cycle arrest in human MCF7 cells assessed as accumulation at G2/M phase at IC50 measured after 24 hrs by propidium iodide/RNase staining based flow cytometry (reference value: 18.4%); format: functional
# [28] = system: MCF7; experiment: Induction of cell cycle arrest in human MCF7 cells assessed as accumulation at S phase at IC50 measured after 24 hrs by propidium iodide/RNase staining based flow cytometry (reference value: 29.88%); format: functional
# [29] = system: MCF7; experiment: Induction of cell cycle arrest in human MCF7 cells assessed as reduction in accumulation at G0/G1 phase at IC50 measured after 24 hrs by propidium iodide/RNase staining based flow cytometry relative to control; format: functional
# [30] = system: MCF7; experiment: Induction of cell cycle arrest in human MCF7 cells assessed as increase in accumulation at G2/M phase at IC50 measured after 24 hrs by propidium iodide/RNase staining based flow cytometry relative to control; format: functional
# [31] = system: MCF7; experiment: Induction of cell cycle arrest in human MCF7 cells assessed as increase in accumulation at pre-G1 phase at IC50 measured after 24 hrs by propidium iodide/RNase staining based flow cytometry relative to control; format: functional
# [32] = system: MCF7; experiment: Induction of apoptosis in human MCF-7 cells assessed as total apoptotic cells at IC50 measured after 24 hrs by Annexin V-FITC/propidium iodide staining based flow cytometry (reference value: 0.69%); format: functional
# [33] = system: MCF7; experiment: Induction of apoptosis in human MCF-7 cells assessed as increase in total apoptotic cells at IC50 measured after 24 hrs by Annexin V-FITC/propidium iodide staining based flow cytometry relative to 5-FU; format: functional
# [34] = Toxicity in ip dosed BALB/c mouse measured for 3 days; format: organism-based; conditions: in vivo, time 3 day
# [35] = system: MCF7; experiment: Antitumor activity against human MCF7 cells xenografted in BALB/c mouse assessed as reduction in tumor volume at 23 mg/kg, ip administered thrice a week for 28 days by vernier caliper analysis; format: functional; conditions: time 28 day
# [36] = Toxicity in BALB/c mouse xenografted with human MCF7 cells assessed as body weight at 23 mg/kg, ip administered thrice a week for 28 days measured on day 28 (reference value: 29.8 gms); format: organism-based; conditions: in vivo, 672 h, time 28 day
# [37] = system: MCF7; experiment: Antiproliferative activity against human MCF-7 cells assessed as inhibition of cell growth at 100 microM measured after 72 hrs by SRB assay relative to celecoxib; format: functional; parameters: scale not given: the % may be the effect or the level left
# Sequence of Carbonic anhydrase 1 (P00915 whole entry): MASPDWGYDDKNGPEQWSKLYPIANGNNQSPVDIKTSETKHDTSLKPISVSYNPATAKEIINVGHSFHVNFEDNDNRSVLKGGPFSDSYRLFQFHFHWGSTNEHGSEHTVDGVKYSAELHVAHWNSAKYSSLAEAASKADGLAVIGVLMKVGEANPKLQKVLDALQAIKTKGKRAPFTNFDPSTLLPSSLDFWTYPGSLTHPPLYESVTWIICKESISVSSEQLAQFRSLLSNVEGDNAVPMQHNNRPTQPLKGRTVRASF
# Sequence of Carbonic anhydrase 12 (O43570 whole entry): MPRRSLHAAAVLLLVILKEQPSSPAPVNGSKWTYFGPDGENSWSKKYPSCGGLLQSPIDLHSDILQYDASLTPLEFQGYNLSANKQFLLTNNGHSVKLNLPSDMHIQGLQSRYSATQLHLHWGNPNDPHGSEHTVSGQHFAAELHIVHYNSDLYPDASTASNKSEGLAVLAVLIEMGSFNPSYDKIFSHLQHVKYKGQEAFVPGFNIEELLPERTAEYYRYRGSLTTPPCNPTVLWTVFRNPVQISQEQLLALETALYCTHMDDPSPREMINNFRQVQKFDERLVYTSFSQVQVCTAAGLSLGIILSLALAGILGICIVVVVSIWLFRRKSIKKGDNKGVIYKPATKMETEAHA
structure (smiles),measurement,setting,value
C/C(=N\Nc1nc(-c2ccc(Cl)cc2)cs1)c1nnn(-c2ccc(Cl)cc2)c1C,pIC50,[1],4.92
same,pIC50,[2],5.77
same,pKi,[3],< 4.00
same,pKi,[4],< 4.00
same,pKi,[5],< 4.00
same,pKi,[6],< 4.00
same,pIC50,[7],3.42
same,inhibition at 100 µM,[8],77.5%
same,inhibition at 100 µM,[9],74.4%
same,inhibition at 100 µM,[10],91.3%
same,pIC50,[11],5.05
same,pIC50,[12],5.63
same,pIC50,[13],5.57
same,Activity,[14],5.88%
same,Activity,[15],11.29%
same,Activity,[16],2.19%
same,Activity,[17],13.02 ng/mL
same,fold change (FC),[18],7.36
same,Activity,[19],227.2 pg/mL
same,fold change (FC),[20],4.99
same,Activity,[21],4.02 ng/mL
same,fold change (FC),[22],0.54
same,pIC50,[23],4.44
same,pIC50,[24],3.88
same,Activity,[25],19.36%
same,Activity,[26],36.41%
same,Activity,[27],38.7%
same,Activity,[28],24.89%
same,fold change (FC),[29],1.4
same,fold change (FC),[30],2.1
same,fold change (FC),[31],9.9
same,Activity,[32],17.17%
same,Activity,[33],70%
Cc1c(-c2nn(-c3ccccc3)cc2/C=N/O)nnn1-c1ccc(C(=O)O)cc1,pIC50,[1],4.91
same,pIC50,[2],5.89
same,pKi,[3],5.33
same,pKi,[4],6.62
same,pKi,[5],5.65
same,pKi,[6],6.81
same,pIC50,[7],3.42
same,inhibition at 100 µM,[8],12.3%
same,inhibition at 100 µM,[9],7.68%
same,inhibition at 100 µM,[10],83.4%
same,pIC50,[13],5.49
same,LD50 at 72 h,[34],61.7 mg/kg
same,Activity,[35],0.45 cm3
same,Activity,[36],27.3 g
same,Activity,[37],80%
